Experimental data taken from the OligoGym collection.
“And” between values parts separate entries of the source, which are not always exact repeats. Equal entries are not always repeated. After the bases stand the sugars from the 5' end (letter, count) and the backbone: PS all phosphorothioate, else s phosphorothioate and o phosphodiester by linkage. Methylation of C is not given here. e = 2'-O-(2-methoxyethyl) (MOE); l = locked nucleic acid (LNA); k = constrained ethyl (cEt); d = 2'-deoxy (DNA)

What was measured:
SNHG14 = settings: ASO, Human Neuronal Cell
SOD1 = settings: ASO

Sequence: AGATCATTCTCAACAATTA (sugars ldddlddddddddlldlll, PS)
- target mRNA inhibition (SNHG14; 7.5 µM): 63%

Sequence: AGATCATTCTCAACAATTA (sugars ldlddldddddddddllll, PS)
- target mRNA inhibition (SNHG14; 7.5 µM): 50%

Sequence: AGCAACATTATTAACCAC (sugars l1 d3 l1 d7 l6, PS)
- target mRNA inhibition (SNHG14; 7.5 µM): 41%

Sequence: AGCAACATTATTAACCAC (sugars l3 d9 l3 d1 l2, PS)
- target mRNA inhibition (SNHG14; 7.5 µM): 27%

Sequence: AGCAACATTATTAACCAC (sugars l5 d7 l1 d3 l2, PS)
- target mRNA inhibition (SNHG14; 7.5 µM): 47%

Sequence: AGCAACATTATTAACCAC (sugars lddlddddddddldllll, PS)
- target mRNA inhibition (SNHG14; 7.5 µM): 47%

Sequence: AGCAACATTATTAACCACC (sugars ldddddddddddldlddll, PS)
- target mRNA inhibition (SNHG14; 7.5 µM): 26%

Sequence: AGCAACATTATTAACCACC (sugars lddldddddddddlldlll, PS)
- target mRNA inhibition (SNHG14; 7.5 µM): 50%

Sequence: AGCATCATATAAACCT (sugars l3 d10 l3, PS)
- target mRNA inhibition (SNHG14; 0.2 µM): 34%
- target mRNA inhibition (SNHG14; 1 µM): 26%

Sequence: AGCATTCAACCCTAAT (sugars l4 d10 l2, PS)
- target mRNA inhibition (SNHG14; 0.2 µM): 52%
- target mRNA inhibition (SNHG14; 1 µM): 60%

Sequence: AGCTCTAAACCTTCAA (sugars l3 d10 l3, PS)
- target mRNA inhibition (SNHG14; 0.2 µM): 40%
- target mRNA inhibition (SNHG14; 1 µM): 12%

Sequence: AGCTTACCAAATATTC (sugars l4 d10 l2, PS)
- target mRNA inhibition (SNHG14; 0.2 µM): 17%
- target mRNA inhibition (SNHG14; 1 µM): 23%

Sequence: AGCTTTTAACCAGAGTG (sugars l2 d11 l4, PS)
- target mRNA inhibition (SNHG14; 7.5 µM): 78%

Sequence: AGTCCTTCCTTTAACCA (sugars l2 d13 l2, PS)
- target mRNA inhibition (SNHG14; 0.2 µM): 21%
- target mRNA inhibition (SNHG14; 1 µM): 41%

Sequence: AGTTCTACTATACTTTC (sugars l3 d1 l1 d10 l2, PS)
- target mRNA inhibition (SNHG14; 7.5 µM): 64%

Sequence: AGTTCTACTATACTTTC (sugars l3 d10 l1 d1 l2, PS)
- target mRNA inhibition (SNHG14; 7.5 µM): 59%

Sequence: AGTTCTACTATACTTTC (sugars l4 d11 l2, PS)
- target mRNA inhibition (SNHG14; 0.2 µM): 50%
- target mRNA inhibition (SNHG14; 1 µM): 57%

Sequence: AGTTCTACTATACTTTC (sugars ldlldddddddldllll, PS)
- target mRNA inhibition (SNHG14; 7.5 µM): 30%

Sequence: AGTTCTACTATACTTTCC (sugars l1 d1 l1 d13 l2, PS)
- target mRNA inhibition (SNHG14; 7.5 µM): 40%

Sequence: AGTTCTACTATACTTTCC (sugars l1 d12 l1 d2 l2, PS)
- target mRNA inhibition (SNHG14; 7.5 µM): 52%

Sequence: AGTTCTACTATACTTTCC (sugars l2 d14 l2, PS)
- target mRNA inhibition (SNHG14; 7.5 µM): 14%

Sequence: AGTTCTACTATACTTTCC (sugars lddddldddddddlddll, PS)
- target mRNA inhibition (SNHG14; 7.5 µM): 60%

Sequence: ATATTGATTCAATTCCC (sugars l2 d1 l1 d10 l3, PS)
- target mRNA inhibition (SNHG14; 7.5 µM): 65%

Sequence: ATATTGATTCAATTCCC (sugars l2 d2 l1 d9 l3, PS)
- target mRNA inhibition (SNHG14; 7.5 µM): 75%

Sequence: ATATTGATTCAATTCCC (sugars ldddlddddddllddll, PS)
- target mRNA inhibition (SNHG14; 7.5 µM): 62%

Sequence: TTATTCACAGGCTTGAA (sugars e2 k2 d9 k2 e2, PS)
- target mRNA inhibition (SOD1; HepG2, 5 µM): 30%

Sequence: TTATTGGGCGATCCCAA (sugars e3 k2 d7 k2 e3, PS)
- target mRNA inhibition (SOD1; HepG2, 3 µM): 15%

Sequence: TTCACAGGCTTGAATGA (sugars e2 k2 d8 k2 e3, PS)
- target mRNA inhibition (SOD1; HepG2, 5 µM): 20%

Sequence: TTCACAGGCTTGAATGA (sugars e3 k2 d7 k2 e3, PS)
- target mRNA inhibition (SOD1; HepG2, 3 µM): 9%

Sequence: TTCATCCTTTGGCCCACCGT (sugars e5 d10 e5, PS)
- target mRNA inhibition (SOD1; HepG2, 3 µM): 30%

Sequence: TTCCGAGGACTGCAACGGAA (sugars e5 d10 e5, PS)
- target mRNA inhibition (SOD1; HepG2, 4 µM): 5%

Sequence: TTCTACAGCTAGCAGGATAA (sugars e5 d10 e5, PS)
- target mRNA inhibition (SOD1; HepG2, 2 µM): 50%

Sequence: TTCTGCTCGAAATTGAT (sugars e3 k2 d7 k2 e3, PS)
- target mRNA inhibition (SOD1; HepG2, 3 µM): 18%

Sequence: TTGCCCAAGTCTCCAACATG (sugars e5 d10 e5, PS)
- target mRNA inhibition (SOD1; HepG2, 5 µM): 41% and 33%

Sequence: TTGGCCCACCGTGTTTTCTG (sugars e5 d10 e5, PS)
- target mRNA inhibition (SOD1; HepG2, 5 µM): 35% and 26%

Sequence: TTTAATACCCATCTGTG (sugars e3 k2 d7 k2 e3, PS)
- target mRNA inhibition (SOD1; HepG2, 3 µM): 0%

Sequence: TTTAATGTTTATCAGG (sugars ekddddddddekekee, linkages s1 o1 s8 o3 s2)
- target mRNA inhibition (SOD1; A431, 0.12 µM): 20%
- target mRNA inhibition (SOD1; A431, 0.6 µM): 5%
- target mRNA inhibition (SOD1; A431, 3 µM): 12%
- target mRNA inhibition (SOD1; A431, 15 µM): 33%
- target mRNA inhibition (SOD1; HepG2, 0.222 µM): 21%
- target mRNA inhibition (SOD1; HepG2, 0.667 µM): 38%
- target mRNA inhibition (SOD1; HepG2, 2 µM): 58%
- target mRNA inhibition (SOD1; HepG2, 6 µM): 81%

Sequence: TTTATTGGGCGATCCCA (sugars e2 k2 d8 k2 e3, PS)
- target mRNA inhibition (SOD1; HepG2, 4 µM): 34%

Sequence: TTTCCTTCTGCTCGAAA (sugars e3 k2 d7 k2 e3, PS)
- target mRNA inhibition (SOD1; HepG2, 3 µM): 6%

Sequence: TTTCTACAGCTAGCAGG (sugars e2 k2 d9 k2 e2, PS)
- target mRNA inhibition (SOD1; HepG2, 0.1875 µM): 26%
- target mRNA inhibition (SOD1; HepG2, 0.75 µM): 68%
- target mRNA inhibition (SOD1; HepG2, 3 µM): 89%
- target mRNA inhibition (SOD1; HepG2, 4 µM): 84%
- target mRNA inhibition (SOD1; HepG2, 12 µM): 95%

Sequence: TTTCTCACTACAGGTAC (sugars e2 k2 d9 k2 e2, PS)
- target mRNA inhibition (SOD1; HepG2, 5 µM): 45%

Sequence: TTTTAAGATTACAGTGTTTA (sugars e5 d10 e5, PS)
- target mRNA inhibition (SOD1; HepG2, 5 µM): 13%

Sequence: TTTTATTCACAGGCTTG (sugars e2 k2 d9 k2 e2, PS)
- target mRNA inhibition (SOD1; HepG2, 5 µM): 48%
